Data taken from article PMC4661694, “Aminopeptidase T of M29 Family Acts as A Novel Intracellular Virulence Factor for Listeria monocytogenes Infection” (Scientific Reports, 2015).

Molecular target: T1, Lmo1603 (Listeria monocytogenes, UniProt Q8Y6T0)
T1 construct: tag removal not mentioned
Assay: p-nitroaniline release, absorbance […] nm
Type: biochemical
Conditions: 50 mM Tris-HCl pH 8.5, 2 mM substrate, 5 uM enzyme, 12 h

T1 sequence (Q8Y6T0 entry or part of it): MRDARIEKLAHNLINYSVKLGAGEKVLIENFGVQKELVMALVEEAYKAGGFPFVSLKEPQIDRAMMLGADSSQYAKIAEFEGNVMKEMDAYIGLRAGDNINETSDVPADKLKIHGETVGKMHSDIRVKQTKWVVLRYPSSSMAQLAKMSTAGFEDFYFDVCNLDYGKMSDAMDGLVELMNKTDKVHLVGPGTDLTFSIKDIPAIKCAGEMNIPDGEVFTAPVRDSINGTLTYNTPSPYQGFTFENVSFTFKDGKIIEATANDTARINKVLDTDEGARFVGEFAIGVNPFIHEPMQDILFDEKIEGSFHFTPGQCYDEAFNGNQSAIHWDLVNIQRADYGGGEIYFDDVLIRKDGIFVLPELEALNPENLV

SMILES | p-nitroaniline release, absorbance 405 nm (cobalt-activated enzyme) | p-nitroaniline release, absorbance 405 nm
N=C(N)NCCC[C@H](N)C(=O)Nc1ccc([N+](=O)[O-])cc1 [Arg-pNA] | Lmo1603 showed the highest activity towards Arg-pNA, followed by Leu-pNA and Ala-pNA | 
CC(C)C[C@H](N)C(=O)Nc1ccc([N+](=O)[O-])cc1 [Leu-pNA] |  | Lmo1603 showed the highest activity towards Arg-pNA, followed by Leu-pNA and Ala-pNA
